# Laboratory results reported in patent publication US10683326B2, “Crystalline salt forms” (Stealth BioTherapeutics Corp., priority 2016, dated 2020).
# Counter-ions that a name gives are not always drawn. Where a SMILES comes first, the peptide text is derived from it. [ ]: non-standard residue; d: D form. Dmt = Cc1cc(O)cc(C)c1C[C@H](N)C(=O)O
# Key:
# [1] = counterion acid; cited from earlier work
# [2] = Dynamic Vapor Sorption (DVS); format: physicochemical; settings: for change in mass (DVS): between 20-90% RH
# Protocol: Approximately 10 mg of sample was placed into a mesh vapor sorption balance pan and loaded into a DVS-1 dynamic vapor sorption balance by Surface Measurement Systems. The sample was subjected to a ramping profile from 40-90% relative humidity (RH) at 10% increments, maintaining the sample at each step until a stable weight had been achieved (99.5% step completion). After completion of the sorption cycle, the sample was dried using the same procedure to 0% RH and then a second sorption cycle back to 40% RH. The weight changes during the sorption/desorption cycles were plotted, allowing the hygroscopic nature of the sample to be determined. XRPD analysis was then carried out on the remaining solid.
# [3] = Salt disproportionation studies (slurry in deionized water, pH and XRPD); format: physicochemical; settings: 20° C.
# Protocol: The scaled-up tosylate and fumarate salts were subjected to salt disproportionation studies at ambient temperature. The following observations and results were obtained during these disproportionation studies: • After stirring the tosylate salt at 20° C. in deionized water for 30 min, pH=2.58.
# [4] = Hydration studies in IPA/water at 3 water activities, XRPD; format: physicochemical
# [5] = Primary salt screen: stability testing of crystalline hits for 72 hours at 40° C./75% RH, post-stability XRPD and HPLC
# Protocol: The primary salt screen was carried out on 35 mg scale in a glovebag under nitrogen using >3 equivalents of the counterions in the appropriate solvent. The contents of the vials were temperature cycled from 30 to 5° C. Any solids were isolated and analyzed by XRFD. • Approximately 35 mg of received material was weighed into each vial, in a glovebag under nitrogen. If amorphous material or counterion isolated, material was returned to vial and solids re-dissolved through addition of an appropriate solvent. Further temperature cycling was then employed, followed by anti-solvent addition and evaporation if required. Solids, if present, were isolated by centrifugation and analyzed by XRPD.
# physchem = test: physchem
# Protocol: 25 mL of 0.2 M potassium hydrogen phthalate solution and 2.50 mL of 0.2 M sodium hydroxide solution were diluted to 100 mL using deionized water. The pH was adjusted as required, using either potassium hydrogen phthalate or sodium hydroxide solution.
# 25 mL of 0.2 M potassium phosphate monobasic solution and 11.20 mL of 0.2 M sodium hydroxide solution were diluted to 100 mL using deionized water. The pH was adjusted as required, using either potassium phosphate monobasic or sodium hydroxide solution.
# [6] = 7-day stability testing (40° C./75% RH, 80° C., ambient temperature and light), XRPD and HPLC; format: physicochemical; settings: 7 days
# Protocol: (§1) Approximately 30 mg of the tosylate and fumarate salts were subjected to 7-day stability testing under the following conditions: • 40° C./75% RH • 80° C. • Ambient temperature and light After 7 days under the stated conditions, XRPD and HPLC analysis was carried out on the resultant solid material. Salt Disproportionation Studies
# as §1, with “light •” for “light”, “Hydration” for “Salt Disproportionation”
# The scaled-up tosylate and fumarate salts were subjected to 7-day stability testing at 40° C./75% RH, 80° C. and ambient temperature and light.
# [7] = counterion acid; cited from earlier work; remark: listed apart in the source
# [8] = 40° C./75% RH, listed as tosylate
# [9] = 40° C./75% RH, listed as fumarate
smiles,measurement,setting,value
Cc1ccc(S(=O)(=O)O)cc1 [p-Toluenesulfonic acid],LogP,[1],0.93
O=C[C@H](O)[C@@H](O)[C@H](O)[C@H](O)C(=O)O [D-Glucuronic acid],LogP,[1],−1.49
N[C@@H](CCC(=O)O)C(=O)O [L-Glutamic acid],LogP,[1],−1.43
Cc1cc(O)cc(C)c1C[C@H](NC(=O)[C@H](N)CCCNC(=N)N)C(=O)N[C@@H](CCCCN)C(=O)N[C@@H](Cc1ccccc1)C(N)=O [Tosylate Pattern 1] (H-[dR][Dmt]KF-NH2),change in mass (DVS),[2]; listed as tosylate salt,ca. 1.3%
same,Post-DVS XRPD analysis,[2]; listed as tosylate salt,remained Pattern 1
same,hygroscopicity by DVS analysis,[2]; listed as tosylate salt,slightly hygroscopic
same,pH of slurry,"[3]; 30 min, listed as tosylate salt",2.58
same,XRPD analysis of the post-slurry material,"[3]; 20 h, listed as tosylate salt",no change to the input Pattern 1 material
same,pH of slurry,"[3]; 20 h, listed as tosylate salt",2.53
same,XRPD analysis of the isolated solids after hydration studies,"[4]; aw=0.368, 0.608 and 0.911, 20° C., 25 h",unchanged
same,XRPD analysis of samples after stability testing,"[5]; 40° C./75% RH, 72 hours",improved in crystallinity
same,purity by HPLC analysis of samples after stability testing,"[5]; 40° C./75% RH, 72 hours",80.6%
same,Purity by HPLC (post-stability),[5]; 72 hours at 40° C./75% RH,80.6
same,"Same XRPD, post-stability","[5]; 72 hours at 40° C./75% RH, P1 = Pattern 1",yes
same,solubility thermodynamic at 24 h,"physchem; aqueous buffer pH 1.2, pH 1.2, Concentration by HPLC (thermodynamic solubility), buffer pH 1.2, 20° C., 24 h",23.8 mg/mL
same,solubility at 24 h,"physchem; aqueous buffers pH 1.2, 4.5 and 6.8",~25 mg/mL
same,Solid Form isolated after solubility study,"physchem; buffer pH 1.2, 20° C., 24 h, listed as Tosylate",Pattern 1
same,Solid Form isolated after solubility study,"physchem; buffer pH 4.5, 20° C., 24 h",Pattern 1
same,Solid Form isolated after solubility study,"physchem; buffer pH 6.8, 20° C., 24 h",Pattern 1
same,XRPD analysis of the isolated solids after thermodynamic solubility studies,"physchem; each buffer solution (pH 1.2, 4.5, 6.8), 20° C., 24 h",unchanged
same,Post-stability XRPD analysis,"[6]; 40° C./75% RH, 80° C. and ambient temperature and light",unchanged
same,Purity by HPLC,[6]; [8],98.5%
same,decrease in purity after stability testing,[6]; [8],ca. 1.3%
same,Purity by HPLC,"[6]; 80° C., listed as Tosylate",99.4%
O=C(O)/C=C\C(=O)O [Maleic],LogP,[1],−0.01
CC(C)CCC[C@@H](C)[C@H]1CC[C@H]2[C@@H]3CC=C4C[C@@H](OS(=O)(=O)O)CC[C@]4(C)[C@H]3CC[C@]12C [Cholesteryl sulfate],LogP,[1],4.45
O=C(O)c1ccc2ccccc2c1O [1-Hydroxy-2-naphthoic],LogP,[1],3.29
Cc1cc(O)cc(C)c1C[C@H](NC(=O)[C@H](N)CCCNC(=N)N)C(=O)N[C@@H](CCCCN)C(=O)N[C@@H](Cc1ccccc1)C(N)=O [Fumarate Pattern 4] (H-[dR][Dmt]KF-NH2),change in mass (DVS),[2]; listed as fumarate salt,ca. 11.5%
same,Post-DVS XRPD analysis,[2]; listed as fumarate salt,remained Pattern 4
same,hygroscopicity by DVS analysis,[2]; listed as fumarate salt,hygroscopic
same,pH of slurry,"[3]; 30 min, listed as fumarate salt",3.50
same,XRPD analysis of the post-slurry material,"[3]; 20 h, listed as fumarate salt",changed to a new pattern (designated Pattern 5)
same,pH of slurry,"[3]; 20 h, listed as fumarate salt",3.48
same,XRPD analysis of the isolated solids after hydration studies,"[4]; aw=0.368 and 0.608, 20° C., 24 h",Pattern 3
same,XRPD analysis of the isolated solids after hydration studies,"[4]; aw=0.911, 20° C., 24 h",Pattern 5
same,Solid Form isolated after solubility study,"physchem; buffer pH 1.2, 20° C., 24 h, listed as Fumarate",Fumaric acid
same,Solid Form isolated after solubility study,"physchem; buffer pH 1.2, 20° C., 24 h, listed as fumarate salt",fumaric acid only
same,Solid Form isolated after solubility study,"physchem; buffer pH 4.5, 20° C., 24 h, listed as fumarate salt",Pattern 5
same,Solid Form isolated after solubility study,"physchem; buffer pH 6.8, 20° C., 24 h, listed as fumarate salt",No solid was isolated
same,Purity by HPLC,[6]; [9],97.5%
same,decrease in purity after stability testing,[6]; [9],ca. 2.4%
same,Post-stability XRPD analysis,[6]; 80° C.,loss of crystallinity
same,decrease in purity after stability testing,[6]; 80° C.,ca. 17%
same,Purity by HPLC,"[6]; 80° C., listed as Fumarate",83.0%
same,Purity by HPLC,[6]; ambient temperature and light,99.6%
same,Post-stability XRPD analysis,[6]; lower temperatures: 40° C./75% RH or ambient conditions,unchanged
O=C(O)C[C@H](O)C(=O)O [L-Malic],LogP,[1],−1.26
O=C(O)CCCCC(=O)O [Adipic],LogP,[1],0.08
CCCCCCCCCCCC(=O)O [Lauric],LogP,[1],4.6
same,pKa 1,[7],4.90
CCS(=O)(=O)O [Ethanesulfonic acid],LogP,[1],−1.36
O=C(O)C(=O)O [Oxalic],LogP,[1],−1.19
C[C@H](CCC(=O)O)[C@H]1CC[C@H]2[C@@H]3CC[C@@H]4C[C@H](O)CC[C@]4(C)[C@H]3C[C@H](O)[C@]12C [Deoxycholic acid],pKa 1,[7],4.76
